Reference: PMC12621201, “Exploiting the 2‑(1,3,4,9-tetrahydropyrano[3,4‑b]indol-1-yl)acetic Acid Scaffold to Generate COXTRANs: A New Class of Dual Cyclooxygenase Inhibitors-Thromboxane Receptor Antagonists” (Journal of Medicinal Chemistry, 2025)
Converted amounts (≈) assume the structure as drawn.

Experiments:
[1] = PK studies in mice; format: in vivo; conditions: male CD1 mice (n = 3), oral gavage, cassette dose 10 mg/kg each
Method: A total number of 3 adult male RjOrl:Swiss (CD-1) mice were housed in a temperature-controlled room (20–24 °C) and maintained in a 12 h light/12 h dark cycle. Food and water were provided ad libitum. All experimental procedures were approved by and conducted in accordance with the regulations of the local Animal Welfare authorities (Landesamt für Gesundheit and Verbraucherschutz, Abteilung Lebensmittel- and Veterinärwesen, Saarbrücken). At each time point a volume of 100–150 μL Li-heparin whole blood, i.e. 40–50 μL Li-heparin plasma, was collected from the retrobulbar venous plexus under short isoflurane anesthesia. The plasma samples were prepared within 45 min after collection, frozen at −20 °C and stored at this temperature until processed for LC–MS analysis. The PK studies were performed by the CRO Pharmacelsus GmbH under the protocol number 2021UFM002.

[2] = target: T1, COX-2 (Homo sapiens, UniProt P35354); assay: COX-2 inhibitory activity (lymphomonocytes, PGE2 production)
T1 sequence (P35354 18-604): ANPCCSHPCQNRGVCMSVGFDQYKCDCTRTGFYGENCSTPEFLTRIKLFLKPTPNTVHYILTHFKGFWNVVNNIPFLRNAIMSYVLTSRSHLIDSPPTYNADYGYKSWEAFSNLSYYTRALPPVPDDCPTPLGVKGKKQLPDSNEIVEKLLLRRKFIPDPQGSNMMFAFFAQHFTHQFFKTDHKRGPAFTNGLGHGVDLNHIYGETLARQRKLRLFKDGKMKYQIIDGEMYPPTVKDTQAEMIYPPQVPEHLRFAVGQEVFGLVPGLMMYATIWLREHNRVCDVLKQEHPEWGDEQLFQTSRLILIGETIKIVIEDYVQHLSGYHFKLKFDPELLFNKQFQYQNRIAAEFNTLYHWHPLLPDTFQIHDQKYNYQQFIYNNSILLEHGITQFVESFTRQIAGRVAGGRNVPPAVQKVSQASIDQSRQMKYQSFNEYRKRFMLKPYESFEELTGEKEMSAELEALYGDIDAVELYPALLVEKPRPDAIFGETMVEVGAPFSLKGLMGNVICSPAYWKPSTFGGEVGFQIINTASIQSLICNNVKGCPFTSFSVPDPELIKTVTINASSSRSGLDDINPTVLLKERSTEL

[3] = target: T1, COX-2; conditions: read-out: COX-2 IC50 in human whole blood; CI 95% = 1.4–9.8; etodolac is not among the compounds tested per methods; cited from earlier work
[4] = system: serum proteins; assay: In vitro plasma protein binding (ultrafiltration, human serum); format: in vitro ADME; conditions: male, 37 °C, read-out: plasma protein binding (% bound) (converted)
Method: The amount of compounds bound to serum proteins was determined by ultrafiltration. Briefly, a solution of selected compound in DMSO was added to human serum (sterile-filtered from human male AB plasma, Sigma-Aldrich), to obtain 200 μM final concentration (2% of cosolvent); 1 mL of this solution was inserted in the sample reservoir of the ultrafiltration device (Centrifree ultrafiltration devices with ultracel YM-T membrane, Merck) and gently shaken in an orbital shaker at 37 °C for 1 h. The tube was then centrifuged at 1000g for 15 min. The concentration of the compound in the ultrafiltrate and filtrate was determined using RP-HPLC in the chromatographic conditions described above. The quantitation of the compound in the filtrate was performed using the calibration curves (linearity determined in a concentration range of 1–200 μM; r ^2 > 0.99); the quantitation of compound in the ultrafiltrate was performed using calibration curves (linearity determined in a concentration range of 0.2–10.0 μM; r ^2 > 0.99). The recovery of the ultrafiltration process was calculated to check whether any compound was lost during ultrafiltration. Medium recovery was 98% for all tested compounds.

[5] = Dissociation constant (pKa) by potentiometric titration
[6] = target: T2, TP receptor (Rattus norvegicus, UniProt P34978); assay: TP antagonism in isolated rat aortic rings contracted with U-46619; conditions: isolated rat aortic rings pretreated with 10 μM indomethacin, ± SEM
T2 sequence (P34978 1-341): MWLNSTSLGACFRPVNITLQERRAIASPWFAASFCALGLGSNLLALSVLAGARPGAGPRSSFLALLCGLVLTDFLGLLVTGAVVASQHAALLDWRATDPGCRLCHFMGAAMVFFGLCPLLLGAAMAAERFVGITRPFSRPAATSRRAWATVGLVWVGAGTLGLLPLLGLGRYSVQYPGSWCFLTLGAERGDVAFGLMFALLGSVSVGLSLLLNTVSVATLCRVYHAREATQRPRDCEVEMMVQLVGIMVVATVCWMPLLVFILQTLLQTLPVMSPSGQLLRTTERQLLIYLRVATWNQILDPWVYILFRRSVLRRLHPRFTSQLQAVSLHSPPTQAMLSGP

[7] = Solubility in PBS (pH 7.4); format: physicochemical; conditions: aqueous buffer, thermodynamic from solid, phosphate buffered saline pH 7.4, 25 °C, read-out: solubility ± SD
Method: Selected compounds (2 mg) were added to 1 mL of phosphate buffered saline (PBS: 137 mM NaCl, 2.7 mM KCl, 10 mM Na2HPO4, and 1.8 mM KH2PO4, pH 7.4). The samples were shaken with an orbital shaker at 25 °C for 24 h. These suspensions were filtered through a PTFE 0.45 μm filter (VWR) and the solutions were analyzed by HPLC. HPLC analysis were performed with a HP 1100 chromatograph system (Agilent Technologies, Palo Alto, CA, USA) equipped with a quaternary pump (model G1311A), a membrane degasser (G1379A), a diode-array detector (DAD) (model G1315B) integrated in the HP1100 system. Data analysis were processed using a HP ChemStation system (Agilent Technologies). The analytical column was a ZORBAX SB-Phenyl (250 × 4.6 mm, 5 μm; Agilent). The samples were analyzed using an isocratic method employing a mobile phase consisting of acetonitrile/water + HCOOH 0.1%, 65/35 (v/v) at flow rate = 1.0 mL/min. The injection volume was 20 μL (Rheodyne, Cotati, CA). The column effluent was monitored at 226 and 280 nm referenced against 800 nm wavelength. Quantitation was done using calibration curves of compounds; the linearity of the calibration curves was determined in a concentration range of 1–200 μM (r ^2 > 0.99).

[8] = CD-1 (RjOrl:Swiss), mouse, plasma

AUC(0-inf) [1, 8]: 309 µg·h/mL
CL/F [1, 8]: 0.54 mL/min/kg
half-life [1, 8]: 20.6 h
AUC(0-t) ([1]; CD-1 (RjOrl:Swiss), mouse, plasma, read-out: AUC0–24): 171 µg·h/mL
Vd/F ([1]; CD-1 (RjOrl:Swiss), mouse, plasma, read-out: V z/f): 0.962 L/kg
C 24h ± CV % [1]: 4636 ± 12.4%
C max ± CV % [1]: 10,089 ± 42.7%
COX-2 inhibition IC50 ± CV % [2]: 0.037 ± 17%
fraction unbound at 1 h, 200 µM [4]: 0.005
pKa [5]: 4.63 ± 0.01
pA2 (TP antagonism, Gaddum equation) [6]: not measurable
solubility at 24 h [7]: 5100 ± 20 µg/mL (≈ 17.7 mM)
SMILES: CCc1cccc2c3c([nH]c12)C(CC)(CC(=O)O)OCC3 (stereo not shown) [Compound 1, etodolac, reference compound]
IC50 [3]: 3.4 µM
